Data as given in patent US20260027083A1, “USE OF PPAR AGONIST FOR IMPROVEMENT OF ENERGY METABOLISM” (NOVMETAPHARMA CO., LTD., priority 2022, published 2026).

Assays:
PPARβ/δ = molecular target: T1, PPARβ/δ (Homo sapiens, UniProt Q03181); experiment: Gal4 trans-activated luciferase reporter assay, PPARβ/δ-LBD, HEK293; assay type: cell-based; settings: HEK293, drug treatment 24 hours, FIG. 1
T1 construct: three types of pcDNA5-GAL4 and pGALRE-luc containing PPARα-LBD, PPARβ/δ-LBD, or PPARγ-LBD; GAL4 (fusion partner from vector pcDNA5-GAL4); expressed in transfected cells; host or cells: HEK293
T1 sequence (Q03181 211-439 limits assumed): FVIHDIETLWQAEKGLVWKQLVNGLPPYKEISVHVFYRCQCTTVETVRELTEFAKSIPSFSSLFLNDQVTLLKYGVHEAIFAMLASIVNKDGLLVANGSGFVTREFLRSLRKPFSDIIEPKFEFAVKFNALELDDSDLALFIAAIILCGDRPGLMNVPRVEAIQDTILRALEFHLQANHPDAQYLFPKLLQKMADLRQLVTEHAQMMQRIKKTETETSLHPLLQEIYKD
Procedure: (§1) A plasmid was transformed into E. coli (DE3, Rosetta) and transfected into HEK293 cells and used. Referring to known literatures such as Kanno, Y. & Inouye, Y. J Toxicol Sci 35, 515-525 (2010), Zhao, S. et al. J Nat Prod 79, 879-885 (2016), etc., luciferase assay was performed on three types of pcDNA5-GAL4 and pGALRE-luc containing PPARα-LBD, PPARβ/δ-LBD, or PPARγ-LBD. pProEX-PPAR and pET-28a were used for purification of His-tagged recombinant hPPAR-LBD protein.
(§2) A HEK293 cell line was cultured in Dulbecco's Modified Eagle Medium (DMEM) containing 10% Fetal Bovine Serum (FBS) and 1% penicillin-streptomycin (P/S). […]
(§3) Transfected HEK293 cells were treated with a drug and after 24 hours, the cells were collected, resuspended in a luciferase lysis buffer (Promega, Madison, Wisconsin, USA), and incubated on ice for 10 minutes. […] Next, Firefly Luciferase (Fluc) and Renilla Luciferase (Rluc) activities were measured using the Dual Luciferase Reporter Assay System (Promega, Madison, Wisconsin, USA). […]
(§4) To confirm whether a compound represented by Chemical Formula 1 was a PPAR agonist, Gal4 trans-activated luciferase assay was performed. Specifically, HEK293 cells were transfected with the Gal4-luciferase reporter systems of PPARα, PPARβ/δ, and PPARγ, respectively, harvested after drug treatment for 24 hours, and then analyzed by Dual-Luciferase assay. […]

PPARα = molecular target: T2, PPARα (Homo sapiens, UniProt Q07869); experiment: Gal4 trans-activated luciferase reporter assay, PPARα-LBD, HEK293; assay type: cell-based; settings: HEK293, drug treatment 24 hours, FIG. 1
T2 construct: three types of pcDNA5-GAL4 and pGALRE-luc containing PPARα-LBD, PPARβ/δ-LBD, or PPARγ-LBD; GAL4 (fusion partner from vector pcDNA5-GAL4); expressed in transfected cells; host or cells: HEK293
T2 sequence (Q07869 239-466 limits assumed): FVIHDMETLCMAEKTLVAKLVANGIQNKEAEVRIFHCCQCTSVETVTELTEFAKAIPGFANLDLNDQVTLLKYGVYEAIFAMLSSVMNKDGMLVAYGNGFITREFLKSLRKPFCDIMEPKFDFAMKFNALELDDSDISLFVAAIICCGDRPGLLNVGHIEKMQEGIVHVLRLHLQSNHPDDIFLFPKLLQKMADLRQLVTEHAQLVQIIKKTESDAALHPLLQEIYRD
Procedure: as §1, §2, §3, §4

high-fat diet mice [1] = experiment: Histology of adipose tissues of high-fat diet mice (H&E); assay type: in vivo, C57BL/6J mice; settings: 5 mg/kg/day oral, 60% HFD
Procedure: (§5) The care and use of experimental animals were carried out with the approval of the Institutional Animal Care and Use Committee of Pohang University of Science and Technology. C57BL/6J mice were purchased from Japan SLC, Inc. 50 four-week-old male C57/BL/6J mice were acclimated for 2 weeks. The mice were randomly divided and orally administered with vehicle or 5 mg/kg/day of D6 or WY14643 for 13 weeks (oral gavage), and obesity was induced by a 60% high-fat diet (#D12492, Research diets, NJ, USA). Body weights and food intakes were measured weekly from 6 weeks of age, and after 16 weeks of age, adipose tissue and muscle volumes were measured using a Trimodality imaging system.
Mouse tissues were fixed with 10% formalin solution (Sigma-Aldrich, St. Louis, MO, USA), and paraffin-embedded tissues were segmented and stained with hematoxylin and eosin (H&E) staining and Sirius Red staining (IHC world, Woodstock, USA).
To observe the effects of the compound represented by Chemical Formula 1 on metabolic diseases, biopsy was performed on adipose tissues of high-fat diet mice.

PPARγ = molecular target: T3, PPARγ (Homo sapiens, UniProt P37231); experiment: Gal4 trans-activated luciferase reporter assay, PPARγ-LBD, HEK293; assay type: cell-based; settings: HEK293, drug treatment 24 hours, FIG. 1
T3 construct: three types of pcDNA5-GAL4 and pGALRE-luc containing PPARα-LBD, PPARβ/δ-LBD, or PPARγ-LBD; GAL4 (fusion partner from vector pcDNA5-GAL4); expressed in transfected cells; host or cells: HEK293
T3 sequence (P37231 238-503 limits assumed): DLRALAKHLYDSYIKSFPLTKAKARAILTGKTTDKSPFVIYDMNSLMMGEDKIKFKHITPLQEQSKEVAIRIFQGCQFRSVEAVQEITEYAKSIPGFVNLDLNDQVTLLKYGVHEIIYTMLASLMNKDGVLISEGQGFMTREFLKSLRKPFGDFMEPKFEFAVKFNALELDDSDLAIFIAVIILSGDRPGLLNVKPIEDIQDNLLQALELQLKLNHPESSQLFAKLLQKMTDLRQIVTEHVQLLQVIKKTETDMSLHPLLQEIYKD
Procedure: as §1, §2, §3, §4

high-fat diet mice [2] = experiment: High-fat diet mice: organ weights; assay type: in vivo, C57BL/6J mice; settings: 5 mg/kg/day oral, 60% HFD, vs HFD-V, FIG. 9
Procedure: as §5
To confirm a metabolic disease inhibitory effect of the compound represented by Chemical Formula 1 through animal experiments, mice were acclimated for 2 weeks, and then obesity was induced by feeding a 60% high fat diet (HFD) and orally administered with vehicle or 5 mg/kg/day of the compound represented by Chemical Formula 1 (D6) or WY14643 for 13 weeks. Experiments such as IP-GTT, IP-ITT, and micro-CT were performed at the week 10 of drug administration (FIG. 5).

## COc1ccc(-c2cc(=O)oc3c(C)c(OC(=O)[C@H](Cc4c[nH]c5ccccc45)NC(=O)OC(C)(C)C)ccc23)cc1 [Chemical Formula 1, [4-(4-methoxyphenyl)-8-methyl-2-oxochromen-7-yl] (2S)-3-(1H-indol-3-yl)-2-[(2-methylpropan-2-yl)oxycarbonylamino]propanoate]
PPARβ/δ
  relative luciferase activity (Fluc to Rluc) for PPARβ/δ: dose-dependently increased
PPARα
  relative luciferase activity (Fluc to Rluc) for PPARα: dose-dependently increased
high-fat diet mice [1]; FIG. 14
  adipocyte sizes in adipose tissue (H&E staining): reduced
high-fat diet mice [1]; FIG. 15
  adipocyte size distribution, brown adipose tissue (BAT): reducing adipocyte sizes
  adipocyte size distribution, epididymal white adipose tissue (eWAT): reducing adipocyte sizes
  adipocyte size distribution, inguinal WAT (iWAT): reducing adipocyte sizes
PPARγ
  relative luciferase activity (Fluc to Rluc) for PPARγ: dose-dependently increased
high-fat diet mice [2]
  epididymal white adipose tissue (eWAT) weight: reduced
  liver weight: reduced
